In PMC6370856, “Peptidyl prolyl cis/trans isomerase activity on the cell surface correlates with extracellular matrix development” (Communications Biology, 2019):

Key:
[1] = tested on: human mesenchymal stromal cells (MSCs); test: PPIase activity on cell surface (PACS), MSCs; assay type: cell-based; settings: MSC, inhibitor final concentration of 10 µM
Experimental: (§1) To investigate PACS, we need to distinguish between different families of PPIase. […] PACS must also be distinguished from that in culture medium. Adhesive cells such as fibroblasts (human dermal fibroblasts isolated from neonatal foreskin (HDFn)) or mesenchymal stromal cells (MSCs) were washed by simple pipetting and pooling. Washing of suspension cells such as T cells was performed by centrifugation. […] To minimize the potential damage to cells, one washing step was used in the PACS measurement for suspension cells (Supplementary Fig. 10).
(§2) The assay was performed in a cold room. If there was no additional description, the assays were performed in CO2-independent medium supplemented with 10% (v/v) h.i. FBS (medium-h.i. FBS) and 2mM L-glutamine. […] FBS to a final concentration of 120 µg mL^−1 (two times substrate stock). α-Chymotrypsin was prepared freshly. Fifteen micrograms of α-chymotrypsin was dissolved in 2 mL medium-h.i. FBS, and the pH was adjusted with 10 µL 1 M NaOH.
(§3) The cells (10,000 per well) were cultured in 96-well plates for 24 h. The supernatant was removed by turning the plate upside down. The cells were washed three times for 5 min under gentle shaking using supplemented CO2-independent medium (100 µL/well), and the supernatant was removed as before. The cells were kept in supplemented CO2-independent medium (100 µL/well) for measuring PPIase activity.
(§4) The medium was removed with a pipette. […] The mixture was kept for 5 min without agitation, followed by 1.5 min of agitation (linear shaking by hand with a speed of around 200 rounds/min). Twenty microliters were taken from the supernatant and measured along with the cell fraction (the remaining 20 µL) for PPIase activity. The activity measurements were triggered by adding 20 µL α-chymotrypsin at time 0 min, followed by 1.5 min of agitation, and the reaction was stopped at time 2 min with 80 µL of 20% acetic acid followed by 15 rounds of up and down pipetting mixing. Four independent experiments were performed on the same day.

[2] = tested on: human dermal fibroblasts isolated from neonatal foreskin (HDFn); test: PPIase activity on cell surface (PACS), HDFn; assay type: cell-based; settings: inhibitor final concentration of 10 µM
Experimental: To investigate PACS, we need to distinguish between different families of PPIase. […] PACS must also be distinguished from that in culture medium. Adhesive cells such as fibroblasts (human dermal fibroblasts isolated from neonatal foreskin (HDFn)) or mesenchymal stromal cells (MSCs) were washed by simple pipetting and pooling. Washing of suspension cells such as T cells was performed by centrifugation. After the first washing step, no change in PPIase activity in supernatant could be detected through the following washing steps. To minimize the potential damage to cells, one washing step was used in the PACS measurement for suspension cells (Supplementary Fig. 10). […] Adding SLF further reduced the isomerase activity in samples both with and without cells due to the FKBP in the fetal bovine serum (FBS)-containing medium. After the treatment of CsA/SLF, these was no difference in the substrate cis/trans isomerization rate in all the samples. Therefore, neither the cells nor the FBS in the culture medium interferes with the protease-coupled PPIase assay (Fig. 4b).
The assay was performed in a cold room. If there was no additional description, the assays were performed in CO2-independent medium supplemented with 10% (v/v) h.i. FBS (medium-h.i. FBS) and 2mM L-glutamine. […] FBS to a final concentration of 120 µg mL^−1 (two times substrate stock). α-Chymotrypsin was prepared freshly. Fifteen micrograms of α-chymotrypsin was dissolved in 2 mL medium-h.i. FBS, and the pH was adjusted with 10 µL 1 M NaOH. Five millimole CsA, SLF, and CsA/SLF mixture were prepared in DMSO.
as §3, §4

[3] = tested on: Jurkat cells; test: PPIase activity on cell surface (PACS), Jurkat cells; assay type: cell-based; settings: 1 µL medium with 200 µM inhibitor added to 19 µL
Experimental: as §1, §2
One or more flasks of cells (5 mL per flask, depending on the maximum culture density of each cell line) were harvested by centrifuging at 1000 rpm for 3 min. To remove PPIases from the supernatant originating from the culture, cells were washed one time with 2 mL CO2-independent medium and were resuspended in 1.6 mL of CO2-independent medium with substrate. The cells were centrifuged again, and then 800 µL of the supernatant was taken. The residual volume containing cells was suspended. Nineteen microliters of the cells or supernatant was pipetted to a non-binding 96-well microplate to measure PPIase activity. Four different conditions were performed. […] The plate was kept for 5 min without agitation. The activity measurements were triggered by adding 20 µL of α-chymotrypsin at time 0 min, followed by 1.5 min agitation, and the reaction was stopped after 2 min with 80 µL 20% acetic acid, followed by 15 rounds of up and down pipetting mixing. […]
For the Jurkat cell number activity measurements, two flasks of cells (10 mL) were harvested, washed, and suspended in 600 µL of CO2-independent medium with substrate. The cells were centrifuged again, and then 300 µL supernatant was taken to measure the activity. The residual volume with cells was suspended and used to measure activity (cell density: 2.4 × 10^7 cells/mL). Four different conditions were performed: 20 µL supernatant or cell with 0 µL substrate, 10 µL supernatant or cell with 10 µL substrate, 5 µL supernatant or cell with 15 µL substrate, and 2.5 µL supernatant or cell with 17.5 µL substrate. […]

[4] = tested on: PPIase activity in culture medium (FKBP in the FBS-containing medium); test: PPIase activity in CO2-independent medium with or without FBS (control); assay type: biochemical, bovine; settings: for Supernatant PPIase activity k, Exp. 1 / Supernatant PPIase activity k, Exp. 2 / Supernatant PPIase activity k, Exp. 3 / Supernatant PPIase activity k, Mean: no cells
Experimental: as §1, §2

With CCC(C)(C)C(=O)C(=O)N1CCCC[C@H]1C(=O)O[C@H](CCc1ccc(OC)c(OC)c1)c1cccc(OCC(=O)O)c1 [SLF] the “Supernatant PPIase activity k, Exp. 1” value ([1]; supernatant) was 0.0025 s⁻¹, the “Supernatant PPIase activity k, Exp. 2” value ([1]; supernatant) was 0.00238 s⁻¹ and the “Supernatant PPIase activity k, Exp. 3” value ([1]; supernatant) was 0.00221 s⁻¹. For the same molecule, the “Supernatant PPIase activity k, Exp. 4” value ([1]; supernatant) was 0.00211 s⁻¹, the “Supernatant PPIase activity k, Mean” value ([1]; supernatant) was 0.0023 s⁻¹ and the “cell surface PPIase activity k, Exp. 2” value ([1]; with cells) was 0.0036 s⁻¹. The “cell surface PPIase activity k, Exp. 3” value ([1]; with cells) was 0.00293 s⁻¹, the “cell surface PPIase activity k, Exp. 4” value ([1]; with cells) was 0.00339 s⁻¹ and the “cell surface PPIase activity k, Mean” value ([1]; with cells) was 0.003307 s⁻¹. For the same molecule, the “Supernatant PPIase activity k, Exp. 1” value ([2]; supernatant) was 0.00186 s⁻¹, the “Supernatant PPIase activity k, Exp. 2” value ([2]; supernatant) was 0.00236 s⁻¹ and the “Supernatant PPIase activity k, Exp. 3” value ([2]; supernatant) was 0.00238 s⁻¹. The “Supernatant PPIase activity k, Mean” value ([2]; supernatant) was 0.0022 s⁻¹, the “cell surface PPIase activity k, Exp. 2” value ([2]; with cells) was 0.0027 s⁻¹ and the “cell surface PPIase activity k, Exp. 3” value ([2]; with cells) was 0.00286 s⁻¹. The “cell surface PPIase activity k, Exp. 4” value ([2]; with cells) was 0.00333 s⁻¹, the “cell surface PPIase activity k, Mean” value ([2]; with cells) was 0.002963 s⁻¹ and the “Supernatant PPIase activity k, Exp. 1” value ([3]; supernatant) was 0.00208 s⁻¹. For the same molecule, the “Supernatant PPIase activity k, Exp. 2” value ([3]; supernatant) was 0.00205 s⁻¹, the “Supernatant PPIase activity k, Exp. 3” value ([3]; supernatant) was 0.00194 s⁻¹ and the “Supernatant PPIase activity k, Exp. 4” value ([3]; supernatant) was 0.00211 s⁻¹. For the same molecule, the “Supernatant PPIase activity k, Exp. 5” value ([3]; supernatant) was 0.00203 s⁻¹, the “Supernatant PPIase activity k, Exp. 6” value ([3]; supernatant) was 0.00196 s⁻¹ and the “Supernatant PPIase activity k, Mean” value ([3]; supernatant) was 0.002028 s⁻¹. For the same molecule, the “cell surface PPIase activity k, Cell (1st replicate column)” value ([3]; with cells) was 0.0033 s⁻¹, the “cell surface PPIase activity k, Cell (2nd replicate column)” value ([3]; with cells) was 0.00321 s⁻¹ and the “cell surface PPIase activity k, Cell (3rd replicate column)” value ([3]; with cells) was 0.00336 s⁻¹. The “cell surface PPIase activity k, Cell (4th replicate column)” value ([3]; with cells) was 0.00308 s⁻¹, the “cell surface PPIase activity k, Cell (5th replicate column)” value ([3]; with cells) was 0.00293 s⁻¹ and the “cell surface PPIase activity k, Cell (6th replicate column)” value ([3]; with cells) was 0.00306 s⁻¹. For the same molecule, the “cell surface PPIase activity k, Mean” value ([3]; with cells) was 0.003176 s⁻¹, the “Supernatant PPIase activity k, Exp. 1” value ([4]; Medium with FBS) was 0.00201 s⁻¹ and the “Supernatant PPIase activity k, Exp. 2” value ([4]; Medium with FBS) was 0.00203 s⁻¹. The “Supernatant PPIase activity k, Exp. 3” value ([4]; Medium with FBS) was 0.00197 s⁻¹, the “Supernatant PPIase activity k, Mean” value ([4]; Medium with FBS) was 0.002003 s⁻¹ and the “Supernatant PPIase activity k, Exp. 1” value ([4]; Medium without FBS) was 0.00194 s⁻¹. The “Supernatant PPIase activity k, Exp. 2” value ([4]; Medium without FBS) was 0.00197 s⁻¹, the “Supernatant PPIase activity k, Exp. 3” value ([4]; Medium without FBS) was 0.00199 s⁻¹ and the “Supernatant PPIase activity k, Mean” value ([4]; Medium without FBS) was 0.001967 s⁻¹. The “inhibition of residual PPIase activity in the supernatant” value ([4]; supernatant / FBS-containing culture medium (Fig. 4b, first right)) was “completely inhibited”.
